SMILES strings stand for the structures.

In the case of `COCCN(C)Cc1cc(C(=O)Nc2nc3c(OC)ccc(C4COCCOC4)c3s2)ccn1`, the melting point (commonly the temperature, or range, at which the solid turns liquid) lay in the range of 100 to 107 °C.

As to `CCCN(CCC)C1Cc2cccc(C(=O)O)c2NC1=O` (stereo not given), the melting point was in the range of 214 to 217 °C.

In the case of `Oc1ccc(N=C2SCCS2)cc1`, the melting point was in the range of 204 to 208 °C.

In turn, `O=C1N(Cc2ncccc2C(F)(F)F)c2ccccc2C12COc1cc3[nH]ncc3cc12` (stereo not given) came in with a melting point of 152 to 154 °C.

The compound `Nc1nc(Cl)cc(NCc2ccccc2F)n1` had a melting point of 130 to 133 °C.

On to `CCn1c(=O)c2c(nc(/C=C/c3ccc(OCC(C)=O)c(OC)c3)n2C)n(CC)c1=O`, for which the melting point came out at 206 °C.

Compound `COc1cc2nc(N)nc(-c3cc(Br)c(C)cc3Br)c2cc1OC` showed a melting point of 282 to 284 °C.

In the case of `CCCCOC(=O)N(C)C(CNC(=O)CC1CC(c2ccc(C#N)cc2)=NO1)C(=O)O` (stereo not given), the melting point fell in the range of 154 to 156 °C.

Regarding `O=C(OCc1ccccc1)c1ccc2cc(-c3ccc(C(O)CO)c(C45CC6CC(CC(C6)C4)C5)c3)ccc2c1` (stereo not given), the melting point was determined as 193 °C.

Take `COc1cc2nc(CO)c(CO)c(-c3ccnc(NN)c3)c2cc1OC`: the melting point was in the range of 225 to 227 °C.

Take `CC(C)c1ncc(CN2C(=O)C3(COc4cc5c(cc43)OCO5)c3ccccc32)o1` (stereo not given): the melting point fell in the range of 75 to 77 °C.

As to `CC=CCNc1cc(C(=O)O)cc(S(=O)(=O)Nc2ccc(NC(C)=O)cc2)c1Nc1ccc(NC(C)=O)cc1`, the melting point is 265 °C.

As to `CC1=C(c2ccncc2)SC(O)C(=O)N1` (stereo not given), the melting point is 214 °C.

As to `CS(=O)(=O)Nc1cnc(NC(=O)[C@H](CC2CCCC2)c2ccc(S(C)(=O)=O)c(Cl)c2)cn1`, the melting point lay within 108 to 110 °C.

`O=C(c1cccc(Nc2nc(-c3ccccc3)nc3ccccc23)c1)N1CCN(c2ncc(Cc3ccccc3)cn2)CC1`: the melting point was 214 to 215 °C.

With `COC(=O)CCCC(=O)N(CCc1c[nH]c2ccccc12)CC1CC1`, the melting point was 99 to 100 °C.

For `CC(C)(C)NS(=O)(=O)c1cccs1`, the melting point was in the range of 80 to 82 °C.

Compound `CCCN(CCC)c1c([N+](=O)[O-])cc(C(C)=O)cc1[N+](=O)[O-]` displayed a melting point of 71 to 72 °C.

Take `CCCCOc1ccc2c(=O)c(S(C)=O)cn(C)c2c1` (stereo not given): the melting point was in the range of 148 to 150 °C.

In turn, `Cc1nn(CCO)c(C)c1S(=O)(=O)c1cc(Cl)cc(Cl)c1` returned a melting point of 199 to 200 °C.

In turn, `C=CCNC(=O)C=c1sc2n(c1=O)Cc1ccccc1N=2` displayed a melting point of 275 to 276 °C.

As to `CCOC(=O)c1cn(-c2ccccc2)c2oc(CN3CCOCC3)cc2c1=O`, the melting point is 210 to 212 °C.

On to `NC(=O)c1cccc(-c2cc(OC(=O)NC3CCCCC3)ccc2O)c1`, for which the melting point is 128 to 130 °C.

Consider `Cc1cc(-c2ccc(Cl)c(Cl)c2)nc(-n2cnc(-c3ccc(S(N)(=O)=O)s3)c2)n1`, for which the melting point turned out to be 254 °C.

`C[Si](C)(C)OC(CCl)(Cn1ccnc1)c1ccc(F)cc1F` (stereo not given) showed a melting point of 88 to 89 °C.

For the compound `Cc1c(CNCC(C)(C)C)[nH]c2c(F)c(NC(=O)c3ccc(OC[C@@H]4CCCO4)cc3)ccc12`, the melting point is 159 to 160 °C.

Compound `COc1cc(Nc2nccc(C(=O)c3ccccc3)n2)cc(OC)c1OC` had a melting point of 165 °C.

On to `COCCOCc1c(F)cccc1-c1ccc2nc(-c3ccc(Cl)cc3)cn2c1`, for which the melting point was in the range of 104 to 105 °C.

For `Nc1ccccc1C(=O)NCCCN1CCC(C(=O)c2ccc(F)cc2)CC1`, the melting point is 113 °C.

`O=C(NCc1ccc(Cl)cc1)c1cn2c3c(cc(I)cc3c1=O)CC2CO` (stereo not given) yielded a melting point of 222 to 223 °C.

`O=C(O)C(=O)c1ccc(OCC(=O)c2cccc3ccccc23)cc1` had a melting point of 141 to 143 °C.

Turning to `CC(C)c1ccccc1Sc1c(O)cc(-c2ccc3c(c2)OCCO3)oc1=O`, the melting point was 246 to 248 °C.

As for `CC(C)[C@@H](N)C(=O)NCC(F)(F)F`, the melting point lay in the range of 43 to 47 °C.

The compound `COc1ccc(C=CC(=O)C=Cc2ccc(OC)cc2OC)c(OC)c1` showed a melting point of 138 to 140 °C.

The compound `CC(C#N)=C1CCC2C3CCC4=CC(=O)CCC4(C)C3CCC12C` (stereo not given) yielded a melting point of 195 to 196 °C.

In turn, `Cn1c(=O)[nH]c2cc3[nH]c(-c4cccnc4)nc3cc21` gave a melting point above 300 °C.

Consider `COc1c([N+](=O)[O-])cc(C#N)c(F)c1O`, for which the melting point fell in the range of 112 to 113 °C.

`O=C(Cl)N1CC(Oc2cc(C(F)(F)F)ccc2Cl)C1` gave a melting point of 40 to 45 °C.

Turning to `COc1ccc(C(=O)Nc2ccccc2)cc1NS(=O)(=O)c1ccccc1`, the melting point is 190 to 194 °C.

Take `Oc1ccc(C=C(Cl)Cl)cc1`: the melting point was in the range of 90 to 91 °C.

As to `COc1nccc(-c2c(-c3ccc(F)cc3)ncn2[C@H]2CC[C@H](O)CC2)n1`, the melting point lay within 188 to 190 °C.

`CS(=O)c1ccc2nc3sc(C(=O)O)cn3c(=O)c2c1` (stereo not given): the melting point lay in the range of 243 to 244 °C.

For `CSc1ccc(-n2c(-c3ccncc3)nc(SC)c(C#N)c2=O)cc1`, the melting point lay within 227 to 229 °C.

In the case of `CCCOc1cc(C)c(C(=O)O)c(OCc2ccc(OCCc3nc(-c4ccccc4)oc3C)cc2)c1`, the melting point fell in the range of 50 to 52 °C.

`CN(c1ccc(OCc2ccc(OC(F)(F)F)cc2)cc1)C1CCN(c2ccc(OC[C@H]3CCn4cc([N+](=O)[O-])nc4O3)cc2)CC1`: the melting point was in the range of 142 to 144 °C.

In turn, `C#CCOCc1cc(-c2ccc(C(F)(F)F)n(C)c2=O)c(F)cc1Cl` displayed a melting point of 99 to 101 °C.

`O=C(NCc1ccc(Cl)cc1)c1coc2ccc(C#CCO)cc2c1=O` came in with a melting point of 182 to 183 °C.

In turn, `O=S(=O)(Cl)Cc1csc(-c2ccc(Cl)c(Cl)c2)n1` had a melting point of 124 to 127 °C.

With `CC(C)(C)OC(=O)N1CCC(C2=C(C#N)C(c3cccc4nonc34)c3c[nH]nc3N2)CC1` (stereo not given), the melting point is 226 °C.

As for `NC(=O)c1c(C(=O)O)cnn1-c1cccc(F)c1`, the melting point lay within 215 to 216 °C.

In the case of `CC(C)C[C@@H](C(=O)NCCCC(c1ccc(F)cc1)c1ccc(F)cc1)N1CCCCC1`, the melting point was in the range of 52 to 70 °C.

As for `COc1ccc(C=Cc2nc3c(c(=O)n(C)c(=O)n3C)n2C)cc1OC`, the melting point was 230 to 232 °C.

The compound `COc1cc(OC)nc(Sc2c(NS(=O)(=O)CC#N)nc(C)n2C)n1` registered a melting point of 223 to 225 °C.

As for `O=c1[nH]c2cc(Cl)ccc2n1C1CCN(CCCn2c(=S)[nH]c3ccccc32)CC1`, the melting point worked out at 267 °C.

Compound `O=C(C1CCN(c2c(Cl)cncc2Cl)CC1)N1CCOCC1` displayed a melting point of 172 to 174 °C.

With `CCC1(CC(=O)O)OCCc2c1[nH]c1c(OCC(F)(F)F)c(Cl)ccc21` (stereo not given), the melting point amounted to 157 °C.

Compound `COC(=O)C1=C(C)NC(C)=C(C(=O)OCCN2CCCN(C(c3ccccc3)c3ccccc3)CC2)C1c1cccc([N+](=O)[O-])c1` (stereo not given) registered a melting point of 60 to 63 °C.

Turning to `COC(=O)N1CC1C(N)=O` (stereo not given), the melting point fell in the range of 117 to 120 °C.

`O=C(O)C1CC1c1cc(=O)c2ccc3ccccc3c2o1` (stereo not given) came in with a melting point of 286 to 288 °C.

Consider `CC(C)N1Cc2cc(O)ccc2N(CCN2CC=C(c3c[nH]c4cc(F)ccc34)CC2)S1(=O)=O`, for which the melting point lay within 80 to 82 °C.

Take `Cc1oc(-c2ccccc2)nc1COc1ccc2c(-c3ccccc3)c(COc3nn(-c4ccccc4)cc3C=O)oc2c1`: the melting point is 176 to 177 °C.

In the case of `Oc1ccccc1C=NC1=NN(c2cnc3ccccc3c2)CC1`, the melting point is 288 to 289 °C.

The compound `Cc1nc2cc3c(cc2o1)C1(CO3)C(=O)N(C(c2ccccc2)c2ccccc2)c2ccccc21` (stereo not given) yielded a melting point of 240 to 242 °C.

For `O=C(Nc1ccc(OCCN2CCOCC2)c2ccccc12)c1cc(F)cc(OC2CCCCC2)c1`, the melting point was in the range of 116 to 118 °C.

Turning to `CCOC(=O)COc1c(C(=O)OC)cc(Cl)cc1[N+](=O)[O-]`, the melting point fell in the range of 68 to 70 °C.

For `COc1ccc(CNc2nc(C)nc(C)c2Cl)cc1Oc1ccc2ncc([N+](=O)[O-])n2n1`, the melting point was in the range of 273 to 274 °C.

`CCCc1sc(NC(=O)C2CCCCC2)c(C#N)c1OC`: the melting point is 146 to 147 °C.

Take `COC(=O)c1[nH]c2cccc(C)c2c1Sc1ccc(Cl)cc1`: the melting point is 192 to 193 °C.

In turn, `COc1ccc(N=C(Cl)c2cccc([N+](=O)[O-])c2)cc1` returned a melting point of 108 °C.

For `CNC(=O)c1cc(N2CCOCC2)cc([N+](=O)[O-])c1`, the melting point fell in the range of 204 to 207 °C.

`N#Cc1nc(SCc2cnn(-c3c(Cl)cc(C(F)(F)F)cc3Cl)n2)n(Cc2ccccc2)c1C#N` registered a melting point of 132 °C.

In turn, `CCn1c(Oc2cccc(N)c2)nnc1[C@@H](C)NS(=O)(=O)c1ccc(Cl)c(Cl)c1` displayed a melting point of 142 to 145 °C.

Regarding `Cc1cc(C)cc(P(c2ccccc2)c2ccccc2)c1`, the melting point is 67 to 69 °C.

`O=C(Nc1ccccc1O)c1ccc(O)c(Cl)c1` registered a melting point of 172 to 174 °C.

As to `COc1cc(C)c(Cc2cnc(N)nc2N)cc1OC`, the melting point lay within 223 to 225 °C.

For `COc1ccc(C(O)COc2ccc(C(=O)O)c(O)c2)cc1C12CC3CC(CC(C3)C1)C2` (stereo not given), the melting point lay within 178 to 179 °C.

Turning to `COc1ccc2cc(-c3cc(=O)oc4cc(O)ccc34)ccc2c1`, the melting point lay within 223 to 225 °C.

Take `CC(=O)c1csc(-c2nc3n(c2-c2ccncc2)CCC3)c1`: the melting point is 152 to 154 °C.

Regarding `CON(C(=O)c1cn(C)nc1C(F)F)C(C)c1cccc(-c2ccc(Cl)c(Cl)c2)c1` (stereo not given), the melting point was 162 to 164 °C.

For the compound `CCCCOc1coc(CO)cc1=O`, the melting point lay within 68 to 73 °C.

Consider `O=C(NC(Cc1c[nH]cn1)C(=O)NC(Cc1ccc(OCc2ccccc2)cc1)C(=O)NCCOCc1ccccc1)OCc1ccccc1` (stereo not given), for which the melting point lay within 161 to 165 °C.

Compound `FC(F)(F)c1ccc2c(C3=CCN(CCCOc4cccc5[nH]ccc45)CC3)c[nH]c2c1` yielded a melting point of 190 to 195 °C.

For `CCCCCCCCS(=O)(=O)C(Cl)S(N)(=O)=O` (stereo not given), the melting point fell in the range of 73 to 74 °C.

Turning to `N#Cc1ccc(-c2cn3c(C(F)(F)F)cccc3n2)cc1`, the melting point was above 300 °C.

`CCCN1C(=O)C(NC(=O)C(N)Cc2ccccc2)N=C(N2CCN(C)CC2)c2ccccc21` (stereo not given): the melting point is 152 to 153 °C.

Values taken from a melting point compilation (Tetko et al.; mined from patent text by program, amines drawn as free bases though some values may be those of a salt).
